Test results taken from patent US6649654B1, “Methods for identifying and using IKK inhibitors” (The Regents of the University of California, priority 1999, dated 2003).
“Also recorded” adds a separate entry of the source.

Assays:
Sp1 = target: T1, Sp1 (Homo sapiens, UniProt P08047); assay: Sp1 DNA binding activity; type: cell-based
T1 construct: endogenous in cells; host or cells: Jurkat (PGA1); cells of the 15dPGJ2 experiment not clearly stated

Oct1 = target: T2, Oct1 (Homo sapiens, UniProt P14859); assay: Oct1 DNA binding activity; type: cell-based
T2 construct: endogenous in cells; host or cells: Jurkat (PGA1); cells of the 15dPGJ2 experiment not clearly stated
T2 sequence (P14859 1-743): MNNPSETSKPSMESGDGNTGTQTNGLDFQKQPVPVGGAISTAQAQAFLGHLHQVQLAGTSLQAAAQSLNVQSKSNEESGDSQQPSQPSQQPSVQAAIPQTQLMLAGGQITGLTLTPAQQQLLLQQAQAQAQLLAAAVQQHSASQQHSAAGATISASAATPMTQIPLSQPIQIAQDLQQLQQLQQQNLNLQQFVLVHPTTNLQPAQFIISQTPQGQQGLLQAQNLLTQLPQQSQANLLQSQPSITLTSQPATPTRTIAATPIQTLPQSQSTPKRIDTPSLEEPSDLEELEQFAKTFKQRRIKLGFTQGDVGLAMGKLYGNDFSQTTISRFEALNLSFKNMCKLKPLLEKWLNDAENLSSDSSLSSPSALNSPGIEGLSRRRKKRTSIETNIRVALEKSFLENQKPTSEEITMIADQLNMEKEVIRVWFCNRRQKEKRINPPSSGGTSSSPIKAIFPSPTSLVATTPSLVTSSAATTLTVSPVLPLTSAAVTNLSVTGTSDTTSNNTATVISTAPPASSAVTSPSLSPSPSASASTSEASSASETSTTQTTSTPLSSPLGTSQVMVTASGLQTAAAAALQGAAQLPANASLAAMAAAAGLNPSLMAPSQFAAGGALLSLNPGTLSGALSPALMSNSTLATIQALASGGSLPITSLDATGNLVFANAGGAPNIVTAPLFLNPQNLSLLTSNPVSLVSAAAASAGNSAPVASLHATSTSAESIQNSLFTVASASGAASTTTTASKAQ

[1] = system: inducible nitric oxide synthase (iNOS); details: activated monocytes; cited from earlier work
NF-κB [2] = assay: NF-κB activation / DNA-binding activity by EMSA in stimulated HeLa cells; type: cell-based, human; details: for effect on NF-κB activation: HeLa cells stimulated with TNFα (PGA1: IL-1 or TNFα); for IC50: Homo sapiens, HeLa cells
Method: (§1) Cells used in the experiments described herein were cultured in either RPMI 1640 (Jurkat cells) or DMEM (HeLa and COS cells), supplemented with 10% FBS and antibiotics. Cells were stimulated with either 25 ng/ml TPA, 20 ng/ml recombinant TNFα, or 10 ng/ml interleukin 1β (Sigma). PGA1, 15dPGJ2, T×B2, LTB4, AA and other PGs (Cayman) dissolved in ethanol were used as well, as known in the art (See e.g., Rossi et al., 94:746-750 [1997]). Controls received equal amounts of ethanol. Transfections were performed using Lipofectamine Plus (GIBCO) for HeLa and COS cells and DEAE-dextran (Sigma) for Jurkat cells. Xpress-tagged NIK, Xpress-tagged MEKK1, HA-tagged IKKα, and HA-tagged IKKβ were also used (See e.g., Zandi et al., Science 281:1360-1363 [1998]; and Delhase et al., Science 284:309-313 [1999]). COX2 and cPLA2 expression vectors were obtained from Dr. L. Feng (See also, Hirose et al., J. Am. Soc. Nephrol., 9:408-416 [1998]). PGD synthase was cloned from HT29 colon carcinoma cell line cDNA by PCR and subcloned into a pCDNA3 vector. Cells were lysed in buffer B (50 mM Tris-HCl, pH 7.5, 400 mM NaCl, 1 mM EDTA, 1 mM EGTA, 1% Triton, 0.5% NP-40, 10% glycerol, and supplemented with 20 mM β-glycerophosphate, 10 mM PNPP, […] 1 mM PMSF, 20 μg/ml aprotinin, 2.5 μg/ml leupeptin, 8.3 μg/ml bestatin, 1.7 μg/ml pepstatin, and 2 mM DTT).
Aliquots of total extracts (15 μg protein) in buffer B were incubated with a ^32P-labeled κB DNA, followed by analysis of DNA-binding activities by EMSA on 4% PAGE gels, as known in the art (See, Rossi et al., supra). Specificity of protein-DNA complexes was verified by supershift with polyclonal antibodies specific for p65 (Rel A).

NF-κB [3] = assay: NF-κB activation by EMSA in Jurkat cells stimulated with TNFα or TPA; type: cell-based, human
Method: as §1, with “DTT). […]” for “DTT).”

T1 sequence (P08047 whole entry): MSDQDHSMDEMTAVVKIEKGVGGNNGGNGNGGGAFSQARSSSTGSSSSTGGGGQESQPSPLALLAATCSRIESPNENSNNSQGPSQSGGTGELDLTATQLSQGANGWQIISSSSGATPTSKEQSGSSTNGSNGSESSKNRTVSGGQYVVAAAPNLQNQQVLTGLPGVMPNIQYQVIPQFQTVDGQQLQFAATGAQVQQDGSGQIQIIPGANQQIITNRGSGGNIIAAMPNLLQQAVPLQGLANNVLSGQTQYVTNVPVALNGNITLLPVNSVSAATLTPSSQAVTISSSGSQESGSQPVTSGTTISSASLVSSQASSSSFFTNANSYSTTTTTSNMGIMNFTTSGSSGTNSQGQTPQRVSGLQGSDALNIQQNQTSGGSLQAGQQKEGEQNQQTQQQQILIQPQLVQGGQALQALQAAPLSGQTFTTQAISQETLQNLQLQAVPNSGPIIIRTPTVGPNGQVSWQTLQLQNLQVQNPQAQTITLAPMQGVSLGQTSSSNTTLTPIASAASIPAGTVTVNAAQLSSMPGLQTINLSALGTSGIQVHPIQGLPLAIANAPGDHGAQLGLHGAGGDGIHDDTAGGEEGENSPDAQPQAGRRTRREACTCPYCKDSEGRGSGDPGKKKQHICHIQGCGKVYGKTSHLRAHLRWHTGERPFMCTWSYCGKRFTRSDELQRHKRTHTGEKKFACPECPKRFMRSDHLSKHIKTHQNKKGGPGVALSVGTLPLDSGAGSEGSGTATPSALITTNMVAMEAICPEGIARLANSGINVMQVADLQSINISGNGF

SMILES	effect on Sp1 DNA-binding activity (Sp1; 15dPGJ2, data not shown)	effect on Oct1 DNA-binding activity (Oct1; 15dPGJ2, data not shown)	production of inducible nitric oxide synthase (iNOS) [1]	effect on NF-κB activation (NF-κB [2])	IC50 (NF-κB [2]; TNFα, read-out: IC50 for inhibition of NF-κB DNA binding activity)	IC50 (NF-κB [2]; TNFα, read-out: IC50 for inhibition of NF-κB DNA-binding activity)	effect on Sp1 DNA binding (Sp1; PGA1 (120 μM), FIG. 1A)	effect on Oct1 DNA binding (Oct1; PGA1 (120 μM), FIG. 1A)	IC50 (NF-κB [3]; Homo sapiens, read-out: half-maximal inhibitory (IC50) concentration towards NF-κB)	effect on NF-κB activation (NF-κB [3]; TNFα or TPA)	IC50 (NF-κB [2]; read-out: IC50 towards NF-κB)	IC50 (NF-κB [2]; read-out: half-maximal inhibition towards NF-κB)
CCCCC/C=C/C=C1/C(=O)C=C[C@@H]1C/C=C\CCCC(=O)O [15dPGJ2, 15-deoxy-Δ^12-14-PGJ2]	did not inhibit	did not inhibit	inhibits	inhibited	2.25 µM	2.25 µM						
CCCCC[C@H](O)/C=C/[C@H]1C=CC(=O)C1CCCCCCC(=O)O (stereo partly shown) [PGA1, prostaglandin A1]				prevented			did not inhibit; also recorded: No effects	did not inhibit; also recorded: No effects	12 µM	prevented	65 µM	65 µM
